Molecules are shown by their SMILES.

Usually melting point stands for the temperature of the solid-liquid transition. On to `CCCCCN(CCC1CCCCC1)C(=O)NCc1ccncc1` [Compound No. 1-52, 1-(2-Cyclohexylethyl)-1-pentyl-3-(4-pyridyl)methylurea], for which the melting point was in the range of 64.7 to 65.8 °C. In turn, `CCCCN(CCC12CC3CC(CC(C3)C1)C2)C(=O)NCCCc1ccncc1` [Compound No. 1-57, 1-[2-(1-Adamantyl)ethyl]-1-butyl-3-[3-(4-pyridyl)propyl]urea] displayed a melting point of 109.5 to 118 °C.

In the case of `O=C(N(CCCc1ccncc1)Cc1ccccc1)N(CCCc1ccccc1)C1CCCCC1` [Compound No. 1-60, 1-Cyclohexyl(phenyl)methyl-1-(3-phenylpropyl)-3-[3-(4-pyridyl)propyl]urea], the melting point was 107 to 112 °C.

In turn, `O=C(NCCCc1ccncc1)N(C1CCCCC1)C1CCCCC1` [Compound No. 1-61, 1,1-Dicyclohexyl-3-[3-(4-pyridyl)propyl]urea] gave a melting point of 143 to 145.5 °C. In the case of `CC(C)(C)OC(=O)CCN(CCC12CC3CC(CC(C3)C1)C2)C(=O)NCCCc1ccncc1` [Compound No. 1-69, 1-[2-(1-Adamantyl)ethyl]-1-[2-(t-butoxycarbonyl)ethyl]-3-[3-(4-pyridyl)propyl]urea], the melting point was in the range of 124.5 to 127 °C. The result for `CCCCCN(CCC12CC3CC(CC(C3)C1)C2)C(=O)NCc1ccccn1` [Compound No. 1-72, 1-[2-(1-Adamantyl)ethyl]-1-pentyl-3-(2-pyridyl)methylurea] reads 87.5 to 92 °C; that for `CCCCCN(CCC12CC3CC(CC(C3)C1)C2)C(=O)NCc1cccnc1` [Compound No. 1-73, 1-[2-(1-Adamantyl)ethyl]-1-pentyl-3-(3-pyridyl)methylurea], 88.5 to 101.5 °C; that for `CCCCCN(CCC12CC3CC(CC(C3)C1)C2)C(=O)NCc1ccncc1` [Compound No. 1-74, 1-[2-(1-Adamantyl)ethyl]-1-pentyl-3-(4-pyridyl)methylurea], 96.5 to 108 °C. In the case of `CCCCCN(CCC12CC3CC(CC(C3)C1)C2)C(=O)NCCc1ccccn1` [Compound No. 1-75, 1-[2-(1-Adamantyl)ethyl]-1-pentyl-3-[2-(2-pyridyl)ethyl]urea], the melting point lay in the range of 80 to 100 °C. The compound `CCCCCN(CCC12CC3CC(CC(C3)C1)C2)C(=O)NCCc1cccnc1` [Compound No. 1-76, 1-[2-(1-Adamantyl)ethyl]-1-pentyl-3-[2-(3-pyridyl)ethyl]urea] had a melting point of 112.5 to 114.5 °C.

The compound `CCCCCN(CCC12CC3CC(CC(C3)C1)C2)C(=O)NCCc1ccncc1` [Compound No. 1-80, 1-[2-(1-Adamantyl)ethyl]-1-pentyl-3-[2-(4-pyridyl)ethyl]urea] registered a melting point of 107 to 118 °C. For the compound `CCCCCN(CCC12CC3CC(CC(C3)C1)C2)C(=O)NCCCc1ccccn1` [Compound No. 1-83, 1-[2-(1-Adamantyl)ethyl]-1-pentyl-3-[3-(2-pyridyl)propyl]urea], the melting point was 84.4 to 85.7 °C. The compound `CCCCCN(CCC12CC3CC(CC(C3)C1)C2)C(=O)NCCCCc1ccncc1` [Compound No. 1-87, 1-[2-(1-Adamantyl)ethyl]-1-pentyl-3-[4-(4-pyridyl)butyl]urea] returned a melting point of 74.1 to 78.1 °C. On to `CCCCCN(CCC12CC3CC(CC(C3)C1)C2)C(=O)NCCCc1ccnc2ccccc12` [Compound No. 1-91, 1-[2-(1-Adamantyl)ethyl]-1-pentyl-3-[3-(4-quinolyl)propyl]urea], for which the melting point was 80.2 to 102 °C.

In turn, `O=C(NCCCc1ccncc1)N(CCCc1ccccc1)C(c1ccccc1)c1ccccc1` [Compound No. 1-93, 1-Diphenylmethyl-1-(3-phenylpropyl)-3-[3-(4-pyridyl)propyl]urea] had a melting point of 123 to 124.8 °C. For `CCCCCN(CCC12CC3CC(CC(C3)C1)C2)C(=O)NCCC(C)c1ccncc1` (stereo not drawn) [Compound No. 1-104, 1-[2-(1-Adamantyl)ethyl]-1-pentyl-3-[3-(4-pyridyl)butyl]urea], the melting point lay in the range of 93 to 98 °C. `O=C(NCCCc1ccncc1)N(CCCC(F)(F)F)CCC12CC3CC(CC(C3)C1)C2` [Compound No. 1-105, 1-[2-(1-Adamantyl)ethyl]-3-[3-(4-pyridyl)propyl]-1-(4,4,4-trifluorobutyl)urea]: the melting point was 142.6 to 145 °C.

The compound `O=C(NCCCc1ccncc1)N(CCCCC(F)(F)F)CCC12CC3CC(CC(C3)C1)C2` [Compound No. 1-106, 1-[2-(1-Adamantyl)ethyl]-3-[3-(4-pyridyl)propyl]-1-(5,5,5-trifluoropentyl)urea] gave a melting point of 116.9 to 118.9 °C. `CCCCCN(CCC12CC3CC(CC(C3)C1)C2)C(=O)NCC(CC)Cc1ccncc1` (stereo not drawn) [Compound No. 1-108, 1-[2-(1-Adamantyl)ethyl]-1-pentyl-3-[2-(4-pyridylmethyl)butyl]urea] came in with a melting point of 72 to 77 °C.

Compound `CCCCCN(CCC12CC3CC(CC(C3)C1)C2)C(=O)NCC(Cc1ccccc1)Cc1ccncc1` (stereo not drawn) [Compound No. 1-109, 1-[2-(1-Adamantyl)ethyl]-3-[2-benzyl-3-(4-pyridyl)propyl]-1-pentylurea] came in with a melting point of 111 to 116 °C.

In turn, `CCCCCN(CCC12CC3CC(CC(C3)C1)C2)C(=O)NCC(Cc1ccncc1)Cc1ccncc1` [Compound No. 1-110, 1-[2-(1-Adamantyl)ethyl]-3-[2,2-bis(4-pyridylmethyl)ethyl]-1-pentylurea] came in with a melting point of 124 to 136 °C. The result for `CCCCCN(CCC12CC3CC(CC(C3)C1)C2)C(=O)NC/C=C/c1ccncc1` [Compound No. 1-112, (E)-1-[2-(1-Adamantyl)ethyl]-1-pentyl-3-[3-(4-pyridyl)-2-propenyl]urea] reads 90 to 118 °C; that for `O=C(NCCCc1ccncc1)N(CCC12CC3CC(CC(C3)C1)C2)CC(F)(F)F` [Compound No. 1-114, 1-[2-(1-Adamantyl)ethyl]-3-[3-(4-pyridyl)propyl]-1-(2,2,2-trifluoroethyl)urea], 106.2 to 107.3 °C; that for `CCCCCN(CCc1ccccc1)C(=O)NCC(C)Cc1ccncc1` (stereo not drawn) [Compound No. 1-115, 3-[2-Methyl-3-(4-pyridyl)propyl]-1-pentyl-1-phenethylurea], 49 to 50 °C. `CC(CNC(=O)N(CCC(F)(F)F)CCC12CC3CC(CC(C3)C1)C2)Cc1ccncc1` (stereo not drawn) [Compound No. 1-117, 1-[2-(1-Adamantyl)ethyl]-3-[2-methyl-3-(4-pyridyl)propyl]-1-(3,3,3-trifluoropropyl)urea] came in with a melting point of 81.1 to 84.1 °C.

Regarding `CCCCN(CCCC12CC3CC(CC(C3)C1)C2)C(=O)NCCCc1ccncc1` [Compound No. 1-122, 1-[3-(1-Adamantyl)propyl]-1-butyl-3-[3-(4-pyridyl)propyl]urea], the melting point fell in the range of 79.8 to 80.4 °C. Compound `O=C(NCCCc1ccncc1)N(CCCC12CC3CC(CC(C3)C1)C2)CC(F)(F)F` [Compound No. 1-123, 1-[3-(1-Adamantyl)propyl]-3-[3-(4-pyridyl)propyl]-1-(2,2,2-trifluoroethyl)urea] yielded a melting point of 88.9 to 90 °C. In turn, `CCN(CCCCC12CC3CC(CC(C3)C1)C2)C(=O)NCCCc1ccncc1` [Compound No. 1-124, 1-[4-(1-Adamantyl)butyl]-1-ethyl-3-[3-(4-pyridyl)propyl]urea] yielded a melting point of 92.7 to 93.7 °C. Compound `CCCN(CCCCC12CC3CC(CC(C3)C1)C2)C(=O)NCCCc1ccncc1` [Compound No. 1-125, 1-[4-(1-Adamantyl)butyl]-1-propyl-3-[3-(4-pyridyl)propyl]urea] displayed a melting point of 110 to 110.5 °C. Compound `CCCCCN(CCC12CC3CC(CC(C3)C1)C2)C(=O)NCCNc1ccncc1` [Compound No. 1-126, 1-[2-(1-Adamantyl)ethyl]-1-pentyl-3-[2-(4-pyridylamino)ethyl]urea] displayed a melting point of 133.9 to 134.5 °C. For `CCCN(CCCC12CC3CC(CC(C3)C1)C2)C(=O)NCc1ccncc1` [Compound No. 1-128, 1-[3-(1-Adamantyl)propyl]-1-propyl-3-(4-pyridyl)methylurea], the melting point is 96 to 98 °C. In the case of `CCN(CCCC12CC3CC(CC(C3)C1)C2)C(=O)NCCCc1ccncc1` [Compound No. 1-130, 1-[3-(1-Adamantyl)propyl]-1-ethyl-3-[3-(4-pyridyl)propyl]urea], the melting point lay in the range of 97.5 to 98.2 °C.

`CCCN(CC(=O)NC12CC3CC(CC(C3)C1)C2)C(=O)NCCCc1ccncc1` [Compound No. 1-132, 1-(1-Adamantyl)aminocarbonylmethyl-1-propyl-3-[3-(4-pyridyl)propyl]urea] returned a melting point of 132 to 132.5 °C. As for `CCCCCN(CCC12CC3CC(CC(C3)C1)C2)C(=O)NCC(C)(C)Cc1ccncc1` [Compound No. 1-135, 1-[2-(1-Adamantyl)ethyl]-3-[2,2-dimethyl-3-(4-pyridyl)propyl]-1-pentylurea], the melting point lay within 82.5 to 84.9 °C.

Turning to `OCCN(CCc1ccccc1)C(=S)NCCCc1ccncc1` [Compound No. 7-2, 1-(2-Hydroxyethyl)-1-phenethyl-3-[3-(4-pyridyl)propyl]thiourea], the melting point lay within 105.6 to 107.1 °C. Take `CN(CCN(CCC12CC3CC(CC(C3)C1)C2)C(=O)NCCCc1ccncc1)S(C)(=O)=O` [Compound No. 10-4, 1-[2-(1-Adamantyl)ethyl]-1-[2-[N-methyl-N-(methylsulfonyl)amino]ethyl]-3-[3-(4-pyridyl)propyl]urea]: the melting point lay in the range of 164.9 to 167.2 °C.

As to `CN(CCN(CCC12CC3CC(CC(C3)C1)C2)C(=O)NCCCc1ccncc1)C(=O)CC(C)(C)C` [Compound No. 10-6, 1-[2-(1-Adamantyl)ethyl]-1-[2-[N-(3,3-dimethylbutyryl)-N-methylamino]ethyl]-3-[3-(4-pyridyl)propyl]urea], the melting point lay within 101.4 to 102.4 °C. The result for `CC(C)(C)OC(=O)NCCN(CCC12CC3CC(CC(C3)C1)C2)C(=O)NCCCc1ccncc1` [Compound No. 10-8, 1-[2-(1-Adamantyl)ethyl]-1-[2-[N-(t-butoxycarbonyl)amino]ethyl]-3-[3-(4-pyridyl)propyl]urea] reads 158 to 160.5 °C. As for `CN(CCN(CCC12CC3CC(CC(C3)C1)C2)C(=O)NCCCc1ccncc1)C(=O)OC(C)(C)C(Cl)(Cl)Cl` [Compound No. 10-10, 1-[2-(1-Adamantyl)ethyl]-1-[2-[N-(1,1-dimethyl-2,2,2-trichloroethoxycarbonyl)-N-methylamino]ethyl]-3-[3-(4-pyridyl)propyl]urea], the melting point was in the range of 47 to 52 °C.

Values taken from patent US7923461B2, “TNF-α production inhibitors” (Santen Pharmaceutical Co., Ltd., priority 2000, dated 2011).
